ChEMBL document CHEMBL3124792, “Discovery and preclinical characterization of the cyclopropylindolobenzazepine BMS-791325, a potent allosteric inhibitor of the hepatitis C virus NS5B polymerase” (J Med Chem, 2014)
≈ marks a conversion by molar mass, not a printed value.

What was measured:
[1] = Solubility of the compound in amorphous form in phosphate buffer at pH 6.5; format: physicochemical
[2] = Permeability of the compound at pH 7.4 by PAMPA; format: physicochemical; conditions: read-out: permeability
PXR (NR1I2) = molecular target: T1, PXR (NR1I2) (Homo sapiens, UniProt O75469); assay: Transactivation of human PXR expressed in human HepG2 cells by luciferase reporter gene assay relative to control; format: cell-based; conditions: HepG2 cells expressing human PXR, read-out: %max
T1 sequence (O75469 whole entry): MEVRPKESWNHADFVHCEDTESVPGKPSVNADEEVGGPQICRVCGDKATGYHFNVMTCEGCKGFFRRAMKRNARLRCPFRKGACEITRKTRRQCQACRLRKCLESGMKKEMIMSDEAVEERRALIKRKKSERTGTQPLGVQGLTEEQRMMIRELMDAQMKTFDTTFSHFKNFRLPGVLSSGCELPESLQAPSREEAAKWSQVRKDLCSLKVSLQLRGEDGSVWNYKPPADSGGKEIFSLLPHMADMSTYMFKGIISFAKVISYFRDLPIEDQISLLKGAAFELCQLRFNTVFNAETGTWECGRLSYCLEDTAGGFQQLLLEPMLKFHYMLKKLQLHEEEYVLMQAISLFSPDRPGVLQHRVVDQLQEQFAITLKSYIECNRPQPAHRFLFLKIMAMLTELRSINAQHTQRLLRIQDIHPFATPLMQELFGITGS

[3] = Cytotoxicity against human HuH7 cells by Alamar blue assay; format: cell-based; conditions: Huh-7 cells
Hepatitis C virus [4] = assay: Antiviral activity against Hepatitis C virus Con1 genotype 1b infected in human HuH7 cells after 3 days by FRET assay in presence of 40% human serum; format: functional, organism-based, Hepacivirus hominis; conditions: isolate Con1, Huh-7, 72 h
Hepatitis C virus [5] = assay: Antiviral activity against Hepatitis C virus H77c genotype 1a infected in human HuH7 cells after 3 days by FRET assay; format: functional, organism-based, Hepacivirus hominis; conditions: genotype 1a H77, Huh-7, 72 h
Hepatitis C virus [6] = assay: Antiviral activity against Hepatitis C virus Con1 genotype 1b infected in human HuH7 cells after 3 days by FRET assay; format: functional, organism-based, Hepacivirus hominis; conditions: isolate Con1, Huh-7, 72 h
Liver microsome [7] = conditions: human, microsomes
Liver microsome [8] = conditions: rat, microsomes
[9] = Inhibition of HCV Con1 genotype 1b recombinant wild-type NS5B polymerase-mediated incorporation of radiolabeled nucleotides by scintillation proximity assay; design: species or system Hepatitis C virus (isolate Con1)
[10] = molecular target: RNA-directed RNA polymerase (Hepacivirus hominis, UniProt O39930, P495A); assay: Inhibition of HCV Con1 genotype 1b NS5B RNA dependent RNA polymerase P495A mutant-mediated incorporation of radiolabeled nucleotides by scintillation proximity assay; design: species or system Hepatitis C virus (isolate Con1)
Chain of RNA-directed RNA polymerase (O39930 entry or part of it P495A): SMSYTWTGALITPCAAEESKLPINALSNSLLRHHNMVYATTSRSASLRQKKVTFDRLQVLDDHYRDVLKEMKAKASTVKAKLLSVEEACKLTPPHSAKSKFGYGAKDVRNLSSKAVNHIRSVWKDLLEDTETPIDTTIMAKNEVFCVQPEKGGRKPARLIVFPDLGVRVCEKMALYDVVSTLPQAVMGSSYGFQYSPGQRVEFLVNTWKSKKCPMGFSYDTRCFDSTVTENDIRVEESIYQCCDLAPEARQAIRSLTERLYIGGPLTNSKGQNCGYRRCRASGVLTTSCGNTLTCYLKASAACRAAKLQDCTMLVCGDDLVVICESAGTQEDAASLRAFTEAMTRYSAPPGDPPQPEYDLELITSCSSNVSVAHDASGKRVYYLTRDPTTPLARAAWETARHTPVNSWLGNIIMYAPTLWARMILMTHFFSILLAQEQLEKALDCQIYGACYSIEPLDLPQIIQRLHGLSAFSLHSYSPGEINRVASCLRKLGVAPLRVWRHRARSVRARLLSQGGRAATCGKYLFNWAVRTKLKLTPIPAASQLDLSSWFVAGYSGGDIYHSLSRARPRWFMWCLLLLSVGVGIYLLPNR

[11] = molecular target: T2, Nuclear receptor subfamily 1 group I member 2 (Homo sapiens, UniProt O75469); assay: Transactivation of human PXR expressed in human HepG2 cells by luciferase reporter gene assay; format: cell-based
T2 sequence (O75469 whole entry): T1 sequence (O75469 whole entry)

Row | SMILES | solubility [1] [µg/mL] | Papp [2] [×10⁻⁶ cm/s] | Emax (PXR (NR1I2)) [%] | CC50 [3] [nM] | EC50 (Hepatitis C virus [4]) [nM] | EC50 (Hepatitis C virus [5]) [nM] | EC50 (Hepatitis C virus [6]) [nM] | Stability (Liver microsome [7]) [%] | Stability (Liver microsome [8]) [%] | IC50 [9] [nM] | EC50 [10] [nM] | EC50 [11] [nM]
1 | COc1ccc2c(c1)C1CC1(C(=O)N1C3CCC1CN(C)C3)Cn1c-2c(C2CCCCC2)c2ccc(C(=O)NS(=O)(=O)N(C)C)cc21 (racemic) | 44 (≈ 66.7 µM) | 77 | 21 | > 10000 | 45 | 5 | 13 | 90 | 100 |  |  | 
2 | O=C(O)c1ccc2c(C3CCCCC3)c3n(c2c1)C[C@]1(C(=O)N2CCOCC2)C[C@@H]1c1ccccc1-3 |  |  |  | > 10000 |  | 472 | 336 |  |  | 93 | 890 | 
3 | CN(C)S(=O)(=O)NC(=O)c1ccc2c(C3CCCCC3)c3n(c2c1)C[C@]1(C(=O)N2CCOCC2)C[C@@H]1c1ccccc1-3 |  |  |  | > 10000 |  | 259 | 143 |  |  | 165 | 630 | 
4 | COc1ccc2c(c1)C1CC1(C(=O)N1CC(O)(C(C)C)C1)Cn1c-2c(C2CCCCC2)c2ccc(C(=O)NS(=O)(=O)N(C)C)cc21 (racemic) |  | 74 | 14 | 6500 | 65 | < 14 | 23 | 72 | 100 |  |  | > 50000
5 | COc1ccc2c(c1)C1CC1(C(=O)N1C3CCC1CNC3)Cn1c-2c(C2CCCCC2)c2ccc(C(=O)NS(=O)(=O)N(C)C)cc21 (racemic) |  | 4 | 31 | > 10000 |  | 14 | 32 | 96 | 100 |  |  | 9000
6 | COc1ccc2c(c1)C1CC1(C(=O)N1CC(O)(C(F)(F)F)C1)Cn1c-2c(C2CCCCC2)c2ccc(C(=O)NS(=O)(=O)N(C)C)cc21 (racemic) |  | 47 | 32 | > 10000 | 115 | 15 | 50 | 100 | 100 |  |  | > 3000
7 | CN(C)S(=O)(=O)NC(=O)c1ccc2c(C3CCCCC3)c3n(c2c1)C[C@@]1(C(=O)N2CCOCC2)C[C@H]1c1ccccc1-3 |  |  |  | > 10000 | 218 | 26 | 31 |  |  | 27 | 240 | 
8 | COc1ccc2c(c1)C1CC1(C(=O)N1CC(O)(c3ccc(F)cc3)C1)Cn1c-2c(C2CCCCC2)c2ccc(C(=O)NS(=O)(=O)N(C)C)cc21 (racemic) |  |  | 3 | 7000 |  | 54 | 220 | 87 | 100 |  |  | > 50000
9 | CCN1CC2CCC(C1)N2C(=O)C12CC1c1cc(OC)ccc1-c1c(C3CCCCC3)c3ccc(C(=O)NS(=O)(=O)N(C)C)cc3n1C2 (racemic) |  | 41 |  | > 10000 | 37 | 4 | 22 | 98 | 98 |  |  | > 50000
10 | COc1ccc2c(c1)C1CC1(C(=O)N1C3CC1CN(C)C3)Cn1c-2c(C2CCCCC2)c2ccc(C(=O)NS(=O)(=O)N(C)C)cc21 (racemic) |  |  |  | 10000 | 39 | 4 | 12 | 100 | 100 |  |  | > 50000
11 | O=C(O)c1ccc2c(C3CCCCC3)c3n(c2c1)CC(C(=O)N1CCOCC1)=Cc1ccccc1-3 |  |  |  | > 10000 |  | 404 | 359 |  |  | 106 | 3400 | 
